Test results: patent publication US20140228349A1, “5,7-SUBSTITUTED-IMIDAZO[1,2-C]PYRIMIDINES” (Array BioPharma Inc., priority 2011, published 2014)

Columns and labels:
Format in all cases: biochemical
JAK1 = target: T1, JAK1 (Homo sapiens, UniProt P23458); assay: JAK1 Inhibition Assay (Omnia kinase fluorescence peptide substrate); details: averaged IC50 ranges; 40 μM (Km app) or 1 mM ATP, 15 nM JAK1
T1 construct: purchased Invitrogen Corporation, Carlsbad, Calif; IVGN PV4775
Text: (§1) The assays described in Examples A, B, C and D for the determination of Tyk2, JAK1, JAK2 and JAK3 kinase activity, respectively, utilized the Omnia® Kinase fluorescence peptide substrate-based technology (Invitrogen). The specific components of the assay mixture are described in Examples A, B, C and D. In these assays, Mg^2+ is chelated upon phosphorylation of the Omnia peptide by the kinase to form a bridge between the chelation-enhanced fluorophore Sox and the phosphate, resulting in an increase in fluorescence emission at 485 nm when excited at […]. The reactions were therefore read at excitation 360 nm and emission was measured at 485 nm every 50 seconds for 45 minutes using a PerkinElmer EnVision Multilabel Plate Reader.
(§2) The final buffer conditions for Tyk2, JAK1, JAK2, and JAK3 assays were as follows: 25 mM HEPES, pH 7.4, 10 mM MgCl2, 0.01% Triton X-100 and 1 mM DTT.
(§3) Compounds were prepared at 50× the final concentration in DMSO by conducting 3-fold serial dilutions from a 500-μM intermediate dilution to give a 10-point dosing curve having a high dose of 10 μM. Two-μL aliquots of these were transferred to a fresh plate for a ten-fold intermediate dilution with assay buffer. Five-μL aliquots of the diluted compounds were then transferred to 20-μL of assay mixtures described in Examples A, B, C and D for a final concentration of DMSO of 2%. A standard or reference compound was typically included on each assay plate to validate that plate. For each plate, percent of control (POC) values were calculated for each well according to the following equation: […]
(§4) IC50's were estimated from the POC's using a standard 4-parameter logistic model:
(§5) The IC50 is defined as the concentration of inhibitor at which the POC equals 50 for the fitted curve.
Compounds of Formula I were screened for their ability to inhibit JAK1 using the general enzyme inhibition assay method, in which the assay mixture contained 40 μM (Km app) or 1 mM ATP, 8 μM Omnia® Y12 peptide (Catalog #IVGN KPZ3121C; Invitrogen Corporation, Carlsbad, Calif.) and 15 nM JAK1 in a total volume of 20 μL. JAK1 was purchased from Invitrogen Corporation, Carlsbad, Calif. (catalog #IVGN PV4775).

JAK2 = target: T2, JAK2 (Homo sapiens, UniProt O60674); assay: JAK2 Inhibition Assay (Omnia kinase fluorescence peptide substrate); details: averaged IC50 ranges; 25 μM (Km app) or 1 mM ATP, 5 nM JAK2
T2 construct: purchased Invitrogen Corporation, Carlsbad, Calif; IVGN PV4288
T2 sequence (O60674 whole entry): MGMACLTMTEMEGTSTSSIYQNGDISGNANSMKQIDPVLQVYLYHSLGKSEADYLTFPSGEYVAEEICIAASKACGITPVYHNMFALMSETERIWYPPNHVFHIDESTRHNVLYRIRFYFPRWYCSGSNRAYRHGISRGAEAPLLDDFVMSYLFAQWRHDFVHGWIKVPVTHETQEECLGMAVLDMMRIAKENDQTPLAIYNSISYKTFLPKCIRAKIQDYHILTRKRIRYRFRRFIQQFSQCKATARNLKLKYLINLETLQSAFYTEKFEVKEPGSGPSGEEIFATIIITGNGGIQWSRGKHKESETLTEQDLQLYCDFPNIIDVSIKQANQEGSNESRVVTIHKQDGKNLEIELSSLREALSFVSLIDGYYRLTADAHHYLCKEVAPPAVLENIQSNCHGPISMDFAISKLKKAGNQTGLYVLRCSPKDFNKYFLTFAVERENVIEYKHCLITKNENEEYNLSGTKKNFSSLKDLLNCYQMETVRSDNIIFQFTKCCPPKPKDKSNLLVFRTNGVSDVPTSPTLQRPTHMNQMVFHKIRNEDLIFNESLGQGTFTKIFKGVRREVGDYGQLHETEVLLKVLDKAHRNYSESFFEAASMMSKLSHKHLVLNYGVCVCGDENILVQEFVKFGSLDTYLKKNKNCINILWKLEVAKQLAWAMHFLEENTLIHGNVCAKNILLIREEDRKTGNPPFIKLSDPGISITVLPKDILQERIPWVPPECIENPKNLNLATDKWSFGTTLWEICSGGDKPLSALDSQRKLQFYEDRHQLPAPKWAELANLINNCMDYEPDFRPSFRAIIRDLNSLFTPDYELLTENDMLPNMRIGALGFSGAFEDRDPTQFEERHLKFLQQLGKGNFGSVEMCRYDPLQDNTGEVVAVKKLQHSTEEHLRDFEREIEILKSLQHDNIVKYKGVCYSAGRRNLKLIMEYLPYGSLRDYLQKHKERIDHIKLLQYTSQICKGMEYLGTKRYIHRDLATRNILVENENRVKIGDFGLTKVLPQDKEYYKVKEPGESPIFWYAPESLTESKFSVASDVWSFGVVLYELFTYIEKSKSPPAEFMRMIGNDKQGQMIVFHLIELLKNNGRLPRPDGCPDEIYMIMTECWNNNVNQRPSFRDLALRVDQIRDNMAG
Text: as §1, §2, §3, §4, §5
(§6) Compounds of Formula I were screened for their ability to inhibit JAK2 using the general enzyme inhibition assay method, in which the assay mixture contained 25 μM (Km app) or 1 mM ATP, 10 μM Omnia® Y7 peptide (Catalog #IVGN KNZ3071C, Invitrogen Corporation, Carlsbad, Calif.) and 5 nM JAK2 in a total volume of 20 μL. JAK2 was purchased from Invitrogen Corporation, Carlsbad, Calif. (catalog #IVGN PV4288).

JAK3 = target: T3, JAK3 (Homo sapiens, UniProt P52333); assay: JAK3 Inhibition Assay (Omnia kinase fluorescence peptide substrate); details: averaged IC50 ranges; 10 μM (Km app) or 1 mM ATP, 2.5 nM JAK3
T3 construct: purchased Invitrogen Corporation, Carlsbad, Calif; IVGN PV4080
T3 sequence (P52333 1-1124): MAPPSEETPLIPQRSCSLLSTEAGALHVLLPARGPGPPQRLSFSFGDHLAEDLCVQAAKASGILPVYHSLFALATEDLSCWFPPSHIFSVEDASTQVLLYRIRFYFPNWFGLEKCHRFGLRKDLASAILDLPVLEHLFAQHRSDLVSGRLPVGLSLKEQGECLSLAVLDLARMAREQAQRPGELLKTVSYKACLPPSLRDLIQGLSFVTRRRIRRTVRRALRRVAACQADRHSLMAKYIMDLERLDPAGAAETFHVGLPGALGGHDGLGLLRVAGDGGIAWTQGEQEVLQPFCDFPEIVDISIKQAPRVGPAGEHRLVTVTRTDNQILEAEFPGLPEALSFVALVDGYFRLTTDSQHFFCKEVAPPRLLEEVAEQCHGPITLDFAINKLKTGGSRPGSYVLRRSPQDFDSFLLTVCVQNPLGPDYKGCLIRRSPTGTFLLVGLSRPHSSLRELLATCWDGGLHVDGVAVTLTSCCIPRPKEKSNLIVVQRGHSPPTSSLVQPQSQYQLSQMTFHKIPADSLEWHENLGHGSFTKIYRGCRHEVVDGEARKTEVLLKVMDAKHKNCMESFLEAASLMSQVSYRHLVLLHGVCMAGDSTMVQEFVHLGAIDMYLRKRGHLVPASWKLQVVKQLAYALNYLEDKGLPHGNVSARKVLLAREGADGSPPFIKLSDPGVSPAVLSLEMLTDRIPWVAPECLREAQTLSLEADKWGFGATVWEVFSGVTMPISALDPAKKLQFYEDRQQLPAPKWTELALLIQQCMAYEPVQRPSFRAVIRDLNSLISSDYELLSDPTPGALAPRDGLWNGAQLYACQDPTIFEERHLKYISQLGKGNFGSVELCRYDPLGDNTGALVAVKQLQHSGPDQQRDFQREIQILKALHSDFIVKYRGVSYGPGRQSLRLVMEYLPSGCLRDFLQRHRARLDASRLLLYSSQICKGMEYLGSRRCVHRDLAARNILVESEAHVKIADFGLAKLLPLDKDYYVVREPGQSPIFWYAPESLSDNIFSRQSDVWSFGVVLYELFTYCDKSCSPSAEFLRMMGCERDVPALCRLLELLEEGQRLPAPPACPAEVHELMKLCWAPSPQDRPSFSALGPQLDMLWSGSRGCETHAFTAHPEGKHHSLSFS
Text: as §1, §2, §3, §4, §5
as §6, with “JAK3” for “JAK2”, “10” for “25”, “2.5” for “5”, “PV4080).” for “PV4288).”

Human Tyk2 kinase domain = target: T4, Human Tyk2 kinase domain (Homo sapiens, UniProt P29597); assay: Tyk2 Inhibition Assay (Omnia kinase fluorescence peptide substrate); details: averaged IC50 ranges; 10 μM (Km app) or 1 mM ATP, 2 nM Tyk2
T4 construct: comprising amino acids 886 to 1187; His10 (10 histidine residues) (C, cleaved yes); made in house
T4 sequence (P29597 886-1187): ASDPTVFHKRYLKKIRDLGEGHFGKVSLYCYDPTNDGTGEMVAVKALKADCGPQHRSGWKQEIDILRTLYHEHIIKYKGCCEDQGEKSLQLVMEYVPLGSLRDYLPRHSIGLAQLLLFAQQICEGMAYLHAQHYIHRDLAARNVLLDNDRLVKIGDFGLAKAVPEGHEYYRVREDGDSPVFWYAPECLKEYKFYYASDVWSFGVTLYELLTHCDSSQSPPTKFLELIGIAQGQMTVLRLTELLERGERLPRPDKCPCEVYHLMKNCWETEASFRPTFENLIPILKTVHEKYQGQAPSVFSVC
Text: as §1, §2, §3, §4, §5
Compounds of Formula I were screened for their ability to inhibit Tyk2 using the general enzyme inhibition assay method, in which the assay mixture contained 10 μM (Km app) or 1 mM ATP, 8 μM Omnia® Y12 peptide (Catalog #IVGN KPZ3121C; Invitrogen Corporation, Carlsbad, Calif.) and 2 nM Tyk2 in a total volume of 20 μL. Human Tyk2 kinase domain, comprising amino acids 886 to 1187 with 10 additional histidine residues (histidine tag) on the carboxy terminus, was expressed and purified from bacculovirus in-house at Array BioPharma Inc. (Boulder, Colo.). The histidine tag was cleaved after purification using standard conditions.

T1 sequence (P23458 whole entry): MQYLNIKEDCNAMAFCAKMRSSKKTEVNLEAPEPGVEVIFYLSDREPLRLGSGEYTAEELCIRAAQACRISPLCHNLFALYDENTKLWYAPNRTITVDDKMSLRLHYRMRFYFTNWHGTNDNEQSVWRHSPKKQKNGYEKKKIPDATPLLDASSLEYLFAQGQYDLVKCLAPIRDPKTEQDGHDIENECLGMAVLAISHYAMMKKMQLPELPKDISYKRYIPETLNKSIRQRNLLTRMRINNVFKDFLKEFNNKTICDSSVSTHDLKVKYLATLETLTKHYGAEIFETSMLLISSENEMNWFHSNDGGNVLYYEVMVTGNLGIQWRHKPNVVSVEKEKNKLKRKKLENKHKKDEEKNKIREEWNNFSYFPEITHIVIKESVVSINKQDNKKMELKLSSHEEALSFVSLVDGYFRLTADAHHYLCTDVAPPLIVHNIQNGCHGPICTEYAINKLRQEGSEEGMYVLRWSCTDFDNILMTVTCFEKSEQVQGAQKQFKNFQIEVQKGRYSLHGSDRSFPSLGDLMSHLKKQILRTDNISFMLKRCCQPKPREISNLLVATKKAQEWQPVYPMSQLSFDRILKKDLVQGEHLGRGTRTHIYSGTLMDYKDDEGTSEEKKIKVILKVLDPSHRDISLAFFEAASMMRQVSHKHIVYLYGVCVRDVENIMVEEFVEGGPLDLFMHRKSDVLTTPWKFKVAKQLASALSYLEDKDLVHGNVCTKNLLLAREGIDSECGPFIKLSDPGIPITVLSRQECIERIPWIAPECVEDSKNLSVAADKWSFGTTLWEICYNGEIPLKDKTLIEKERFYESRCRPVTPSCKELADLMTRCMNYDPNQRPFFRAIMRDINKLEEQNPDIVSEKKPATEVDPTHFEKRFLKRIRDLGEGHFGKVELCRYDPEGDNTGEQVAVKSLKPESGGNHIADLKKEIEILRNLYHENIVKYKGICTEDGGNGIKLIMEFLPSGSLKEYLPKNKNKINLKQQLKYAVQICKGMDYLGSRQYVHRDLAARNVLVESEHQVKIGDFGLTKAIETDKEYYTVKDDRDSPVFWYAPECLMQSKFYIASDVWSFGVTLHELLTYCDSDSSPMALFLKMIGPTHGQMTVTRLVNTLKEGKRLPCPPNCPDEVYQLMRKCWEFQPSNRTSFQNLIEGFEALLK

| IC50 (JAK1) | IC50 (JAK2) | IC50 (JAK3) | IC50 (Human Tyk2 kinase domain) | Structure (SMILES) |
| --- | --- | --- | --- | --- |
| > 1000 nM | > 1000 nM | > 1000 nM | 100 to 1000 nM | CCOC(=O)CC1(n2cc(-c3nc(-c4cnn(C)c4)cc4nccn34)cn2)CN(S(=O)(=O)C(F)(F)F)C1 [Example 1, ethyl 2-(3-(4-(7-(1-methyl-1H-pyrazol-4-yl)imidazo[1,2-c]pyrimidin-5-yl)-1H-pyrazol-1-yl)-1-(trifluoromethylsulfonyl)azetidin-3-yl)acetate] |
| > 1000 nM | > 1000 nM | > 1000 nM | 100 to 1000 nM | Cn1cc(-c2cc3nccn3c(-c3cnn(C4(CC(=O)O)CN(S(=O)(=O)C(F)(F)F)C4)c3)n2)cn1 [Example 2, 2-(3-(4-(7-(1-methyl-1H-pyrazol-4-yl)imidazo[1,2-c]pyrimidin-5-yl)-1H-pyrazol-1-yl)-1-((trifluoromethyl)sulfonyl)azetidin-3-yl)acetic acid] |
| 100 to 1000 nM | 100 to 1000 nM | 100 to 1000 nM | 10 to 100 nM | Cn1cc(-c2cc3nccn3c(-c3cnn(C4(CCO)CN(S(=O)(=O)C(F)(F)F)C4)c3)n2)cn1 [Example 3, 2-(3-(4-(7-(1-methyl-1H-pyrazol-4-yl)imidazo[1,2-c]pyrimidin-5-yl)-1H-pyrazol-1-yl)-1-((trifluoromethyl)sulfonyl)azetidin-3-yl)ethanol] |
| > 1000 nM | > 1000 nM | > 1000 nM | 100 to 1000 nM | COCCC1(n2cc(-c3nc(-c4cnn(C)c4)cc4nccn34)cn2)CN(S(=O)(=O)C(F)(F)F)C1 [Example 4, 5-(1-(3-(2-methoxyethyl)-1-((trifluoromethyl)sulfonyl)azetidin-3-yl)-1H-pyrazol-4-yl)-7-(1-methyl-1H-pyrazol-4-yl)imidazo[1,2-c]pyrimidine] |
| > 1000 nM | 100 to 1000 nM | > 1000 nM | 100 to 1000 nM | CCn1cc(-c2nc(-c3cnn(C)c3)cc3nccn23)cn1 [Example 5, 5-(1-ethyl-1H-pyrazol-4-yl)-7-(1-methyl-1H-pyrazol-4-yl)imidazo[1,2-c]pyrimidine] |
| > 1000 nM | > 1000 nM | > 1000 nM | 100 to 1000 nM | Cn1cc(-c2cc3nccn3c(-c3cnn(C(CO)C4CC4)c3)n2)cn1 (centres unmarked) [Example 6, 2-cyclopropyl-2-(4-(7-(1-methyl-1H-pyrazol-4-yl)imidazo[1,2-c]pyrimidin-5-yl)-1H-pyrazol-1-yl)ethanol] |
| > 1000 nM | > 1000 nM | > 1000 nM | 100 to 1000 nM | CC#CCCn1cc(-c2nc(-c3cnn(C)c3)cc3nccn23)cn1 [Example 7, 7-(1-Methyl-1H-pyrazol-4-yl)-5-(1-(pent-3-yn-1-yl)-1H-pyrazol-4-yl)imidazo[1,2-c]pyrimidine] |
| 100 to 1000 nM | 10 to 100 nM | 100 to 1000 nM | 10 to 100 nM | C#CCCn1cc(-c2nc(-c3cnn(C)c3)cc3nccn23)cn1 [Example 8, 5-(1-(But-3-yn-1-yl)-1H-pyrazol-4-yl)-7-(1-methyl-1H-pyrazol-4-yl)imidazo[1,2-c]pyrimidine] |
| > 1000 nM | 100 to 1000 nM | 100 to 1000 nM | 10 to 100 nM | Cn1cc(-c2cc3nccn3c(-c3cnn(C(C4CC4)C4CC4)c3)n2)cn1 [Example 9, 5-(1-(Dicyclopropylmethyl)-1H-pyrazol-4-yl)-7-(1-methyl-1H-pyrazol-4-yl)imidazo[1,2-c]pyrimidine] |
| 100 to 1000 nM | 10 to 100 nM | 100 to 1000 nM | < 10 nM | C=CCC(CC1CC1)n1cc(-c2nc(-c3cnn(C)c3)cc3nccn23)cn1 (centres unmarked) [Example 10, 5-(1-(1-Cyclopropylpent-4-en-2-yl)-1H-pyrazol-4-yl)-7-(1-methyl-1H-pyrazol-4-yl)imidazo[1,2-c]pyrimidine] |
| 100 to 1000 nM | 10 to 100 nM | 100 to 1000 nM | 10 to 100 nM | Cn1cc(-c2cc3nccn3c(-c3cnn(C(CC4CC4)CC4CC4)c3)n2)cn1 [Example 11, 5-(1-(1,3-Dicyclopropylpropan-2-yl)-1H-pyrazol-4-yl)-7-(1-methyl-1H-pyrazol-4-yl)imidazo[1,2-c]pyrimidine] |
| > 1000 nM | > 1000 nM | > 1000 nM | 100 to 1000 nM | CCOC(=O)CC(C1CC1)n1cc(-c2nc(-c3cnn(C)c3)cc3nccn23)cn1 (centres unmarked) [Example 12, Ethyl 3-cyclopropyl-3-(4-(7-(1-methyl-1H-pyrazol-4-yl)imidazo[1,2-c]pyrimidin-5-yl)-1H-pyrazol-1-yl)propanoate] |
| – | 10 to 100 nM | – | < 10 nM | Cn1cc(-c2cc3nccn3c(-c3ccn([C@H](CCF)[C@H]4CC4(F)F)c3)n2)cn1 [Example 29, 5-(1-((R)-1-((R)-2,2-difluorocyclopropyl)-3-fluoropropyl)-1H-pyrrol-3-yl)-7-(1-methyl-1H-pyrazol-4-yl)imidazo[1,2-c]pyrimidine] |
